Test results as given in ChEMBL document CHEMBL4229519, “Design, synthesis, and activity evaluation of novel erythropoietin mimetic peptides” (Bioorg Med Chem Lett, 2018).
Bridge positions count the residues as written; N and C are the ends. Square brackets hold non-standard residues; d marks the D form. Peptide text beside a SMILES is read from it. 1Nal = N[C@@H](Cc1cccc2ccccc12)C(=O)O; Cit = NC(=O)NCCC[C@H](N)C(=O)O; NMeA = CN[C@@H](C)C(=O)O; Sar = CNCC(=O)O

Key:
Erythropoietin receptor = biological target: T1, Erythropoietin receptor (Homo sapiens, UniProt P19235); test: Agonist activity at EPO receptor in human TF1 cells assessed as induction of cell proliferation after 48 hrs by MTT assay; type: cell-based
T1 sequence (P19235 whole entry): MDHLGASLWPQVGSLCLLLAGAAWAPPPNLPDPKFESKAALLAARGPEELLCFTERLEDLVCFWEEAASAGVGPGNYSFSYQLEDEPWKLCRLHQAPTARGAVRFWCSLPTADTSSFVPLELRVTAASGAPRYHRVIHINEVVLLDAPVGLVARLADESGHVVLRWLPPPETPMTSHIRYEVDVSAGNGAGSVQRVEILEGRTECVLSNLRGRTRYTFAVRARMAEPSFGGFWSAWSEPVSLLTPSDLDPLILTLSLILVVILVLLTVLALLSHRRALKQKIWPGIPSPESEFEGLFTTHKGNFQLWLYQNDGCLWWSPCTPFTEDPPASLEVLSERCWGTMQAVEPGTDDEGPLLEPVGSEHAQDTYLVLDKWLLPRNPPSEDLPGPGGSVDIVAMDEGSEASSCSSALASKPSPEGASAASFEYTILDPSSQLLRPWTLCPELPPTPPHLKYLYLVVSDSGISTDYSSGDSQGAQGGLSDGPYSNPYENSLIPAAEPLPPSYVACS

Mus musculus [1] = test: Toxicity in mouse assessed as increase in body weight at 2.1 umol/kg, sc administered once daily for 7 consecutive days measured on day 5 during compound dosing relative to control; type: organism-based; conditions: in vivo
Mus musculus [2] = test: Antianemic activity in mouse assessed as reticulocyte level at 2.1 umol/kg, sc administered once daily for 7 consecutive days (reference value: 0.46 +/- 0.11 10^12/L); type: functional
Mus musculus [3] = test: Effect on WBC level in mouse at 2.1 umol/kg, sc administered once daily for 7 consecutive days (reference value: 5.84 +/- 1.43 10^9/L); type: ADME, organism-based; conditions: in vivo
Mus musculus [4] = test: Antianemic activity in mouse assessed as RBC level at 2.1 umol/kg, sc administered once daily for 7 consecutive days (reference value: 8.74 +/- 0.58 10^12/L); type: functional
Mus musculus [5] = test: Toxicity in mouse assessed as increase in body weight at 2.1 umol/kg, sc administered once daily for 7 consecutive days measured on day 7 during compound dosing relative to control; type: organism-based; conditions: in vivo
Mus musculus [6] = test: Toxicity in mouse assessed as body weight at 2.1 umol/kg, sc administered once daily for 7 consecutive days measured on day 1 during compound dosing (reference value: 24.5 +/- 1.1 g); type: organism-based; conditions: in vivo
Mus musculus [7] = test: Antianemic activity in mouse assessed as hematocrit by measuring ratio of RBC volume to total blood volume at 2.1 umol/kg, sc administered once daily for 7 consecutive days (reference value: 0.476 +/- 0.024); type: functional
Mus musculus [8] = test: Toxicity in mouse assessed as increase in body weight at 2.1 umol/kg, sc administered once daily for 7 consecutive days measured on day 3 during compound dosing relative to control; type: organism-based; conditions: in vivo
Mus musculus [9] = test: Antianemic activity in mouse assessed as hemoglobin level at 2.1 umol/kg, sc administered once daily for 7 consecutive days (reference value: 135.1 +/- 9.5 g/L); type: functional

SMILES	EC50 (Erythropoietin receptor)	Activity (Mus musculus [1]) [%]	Activity (Mus musculus [2]) [×10¹² /L]	Activity (Mus musculus [3]) [×10⁹ /L]	Activity (Mus musculus [4]) [×10¹² /L]	Activity (Mus musculus [5]) [%]	Activity (Mus musculus [6]) [g]	Ratio (Mus musculus [7])	Activity (Mus musculus [8]) [%]	Activity (Mus musculus [9]) [g/L]
CC[C@H](C)[C@@H]1NC(=O)[C@@H]2CCCN2C(=O)CNC(=O)[C@@H](CCSC)NC(=O)[C@H](Cc2cnc[nH]2)NC(=O)[C@@H](NC(=O)[C@H](C)NC(=O)[C@H](Cc2ccc(O)cc2)NC(=O)[C@H](CC(C)C)NC(=O)CNC(=O)CNC(C)=O)CSSC[C@@H](C(=O)N[C@@H](CCC(N)=O)C(=O)N2CCC[C@H]2C(=O)N[C@@H](CC(C)C)C(=O)N[C@@H](CCCNC(=N)N)C(=O)N(C)CC(=O)N[C@@H](CCCCN)C(N)=O)NC(=O)[C@H](C(C)C)NC(=O)[C@H](Cc2cccc3ccccc23)NC(=O)[C@H]([C@@H](C)O)NC1=O	Not Active									
CC[C@H](C)[C@@H]1NC(=O)[C@@H]2CCCN2C(=O)CNC(=O)[C@H](CCSC)NC(=O)[C@H](Cc2cnc[nH]2)NC(=O)[C@@H](NC(=O)[C@H](C)NC(=O)[C@@H](Cc2ccc(O)cc2)NC(=O)[C@H](CC(C)C)NC(=O)CNC(=O)CNC(C)=O)CSSC[C@@H](C(=O)N[C@@H](CCC(N)=O)C(=O)N2CCC[C@H]2C(=O)N[C@@H](CC(C)C)C(=O)N[C@@H](CCCNC(=N)N)C(=O)N(C)CC(=O)N[C@@H](CCCCN)C(N)=O)NC(=O)[C@H](C(C)C)NC(=O)[C@H](Cc2cccc3ccccc23)NC(=O)[C@H]([C@@H](C)O)NC1=O	Not Active									
CC[C@H](C)[C@@H]1NC(=O)[C@@H]2CCCN2C(=O)CNC(=O)[C@H](CCSC)NC(=O)[C@H](Cc2cnc[nH]2)NC(=O)[C@@H](NC(=O)[C@H](C)NC(=O)[C@H](Cc2ccc(O)cc2)NC(=O)[C@H](CC(C)C)NC(=O)CNC(=O)CNC(C)=O)CSSC[C@@H](C(=O)N[C@@H](CCC(N)=O)C(=O)N2CCC[C@H]2C(=O)N[C@@H](CC(C)C)C(=O)N[C@@H](CCCNC(=N)N)C(=O)N(C)CC(=O)N[C@@H](CCCCN)C(N)=O)NC(=O)[C@H](C(C)C)NC(=O)[C@H](Cc2cccc3ccccc23)NC(=O)[C@H]([C@@H](C)O)NC1=O		16.3	0.7	5.11	9.17	22.6	24.9	0.493	12.5	149.9
CC[C@H](C)[C@@H]1NC(=O)[C@@H]2CCCN2C(=O)CNC(=O)[C@H](CCSC)NC(=O)[C@H](Cc2cnc[nH]2)NC(=O)[C@@H](NC(=O)[C@H](C)NC(=O)[C@H](Cc2ccc(O)cc2)NC(=O)[C@H](CC(C)C)NC(=O)CNC(=O)CNC(C)=O)CSSC[C@@H](C(=O)N[C@@H](CCC(N)=O)C(=O)N(C)[C@@H](C)C(=O)N[C@@H](CC(C)C)C(=O)N[C@@H](CCCNC(=N)N)C(=O)N(C)CC(=O)N[C@@H](CCCCN)C(N)=O)NC(=O)[C@H](C(C)C)NC(=O)[C@H](Cc2cccc3ccccc23)NC(=O)[C@H]([C@@H](C)O)NC1=O (Ac-GGLYACHMGPIT[1Nal]VCQ[NMeA]LR[Sar]K-NH2; disulfide 6-15)		15.3	0.65	5.45	9.14	19.1	24.7	0.493	11	146.4
CC[C@H](C)[C@@H]1NC(=O)[C@@H]2CCCN2C(=O)CNC(=O)[C@H](CCSC)NC(=O)[C@H](Cc2cnc[nH]2)NC(=O)[C@@H](NC(=O)[C@@H](C)NC(=O)[C@H](Cc2ccc(O)cc2)NC(=O)[C@H](CC(C)C)NC(=O)CNC(=O)CNC(C)=O)CSSC[C@@H](C(=O)N[C@@H](CCC(N)=O)C(=O)N2CCC[C@H]2C(=O)N[C@@H](CC(C)C)C(=O)N[C@@H](CCCNC(=N)N)C(=O)N(C)CC(=O)N[C@@H](CCCCN)C(N)=O)NC(=O)[C@H](C(C)C)NC(=O)[C@H](Cc2cccc3ccccc23)NC(=O)[C@H]([C@@H](C)O)NC1=O	Not Active									
CC[C@H](C)[C@@H]1NC(=O)[C@H](C)N(C)C(=O)CNC(=O)[C@H](CCSC)NC(=O)[C@H](Cc2cnc[nH]2)NC(=O)[C@@H](NC(=O)[C@H](C)NC(=O)[C@H](Cc2ccc(O)cc2)NC(=O)[C@H](CC(C)C)NC(=O)CNC(=O)CNC(C)=O)CSSC[C@@H](C(=O)N[C@@H](CCC(N)=O)C(=O)N2CCC[C@H]2C(=O)N[C@@H](CC(C)C)C(=O)N[C@@H](CCCNC(=N)N)C(=O)N(C)CC(=O)N[C@@H](CCCCN)C(N)=O)NC(=O)[C@H](C(C)C)NC(=O)[C@H](Cc2cccc3ccccc23)NC(=O)[C@H]([C@@H](C)O)NC1=O (Ac-GGLYACHMG[NMeA]IT[1Nal]VCQPLR[Sar]K-NH2; disulfide 6-15)		19.5	0.66	5.64	9.15	27.2	24.7	0.498	12.7	144.4
CC[C@H](C)[C@@H]1NC(=O)[C@@H]2CCCN2C(=O)CNC(=O)[C@H](CCSC)NC(=O)[C@H](Cc2cnc[nH]2)NC(=O)[C@@H](NC(=O)[C@H](C)NC(=O)[C@H](Cc2ccc(O)cc2)NC(=O)[C@H](CC(C)C)NC(=O)CNC(=O)CNC(C)=O)CSSC[C@@H](C(=O)N[C@@H](CCC(N)=O)C(=O)N2CCC[C@H]2C(=O)N[C@@H](CC(C)C)C(=O)N[C@@H](CCCNC(N)=O)C(=O)N(C)CC(=O)N[C@@H](CCCCN)C(N)=O)NC(=O)[C@H](C(C)C)NC(=O)[C@H](Cc2cccc3ccccc23)NC(=O)[C@H]([C@@H](C)O)NC1=O (Ac-GGLYACHMGPIT[1Nal]VCQPL[Cit][Sar]K-NH2; disulfide 6-15)		16.9	0.89	6.48	9.67	21.7	25.5	0.535	11.7	158.1
